Measurements as given in US9302991B2, “Arylamide derivatives as TTX-S blockers” (RaQualia Pharma Inc., priority 2010, dated 2016).

Target: T1, human Nav1.3 channels (Homo sapiens, UniProt Q9NY46)
T1 construct: expressed in transfected cells; host or cells: HEK293
Experiment: FRET assay, human Nav1.3 (EFS on FDSS)
Format: cell-based
Conditions: HEK293 cells expressing human Nav1.3, read-out: IC50 against Nav1.3
Method: The inhibitory activities of compounds against voltage gated sodium channels are determined by methodology well known in the art.
The ability of the aryl substituted carboxamide derivatives of the formula (I) to inhibit the NaV1.3, Nav1.7 and Nav1.5 channels is measured by Fluorescence Resonance Energy Transfer (FRET) assay and electrophysiology assay described below.
This screen is used to determine the effects of compounds on human Nav1.3, human Nav1.7, and human Nav1.5 channels, utilising electrical field stimulation (EFS) system in 96-well plate format on FDSS (Hamamatsu Photonics) platform. The change of membrane potential is monitored with FRET dye pair, oxonol (DiSBAC2(3)) and coumarin (CC2-DMPE).
Each HEK293 cells expressing human Nav1.3 channels and HEK293 cells expressing human Nav1.5 channels are grown in T225 flasks, in a 5% CO2 humidified incubator to about 80% confluence. Media composition consists of Dulbecco's Modified Eagle Medium (high glucose), 10% FCS, 100 units/mL Penicillin, 100 microgram/mL Streptomycin and 500 microgram/mL Geneticine.
Protocol: • Seed each cell lines (1×10^5 cells/well) into poly-D-lysine coated 96-well plates prior to experimentation. • Incubate at 37° C. in 5% CO2 for 24 hours. • Wash each well with assay buffer (140 mM NaCl, 4.5 mM KCl, 10 mM D-Glucose, 2 mM CaCl2, 1 mM MgCl2, 10 mM HEPES, pH 7.4 adjusted with NaOH) twice. • Add 1st loading solution containing 10 microM CC2-DMPE and 0.06% Pluronic F-127 in assay buffer. • Incubate the plate at room temperature in dark for 1 hour. • Remove 1st loading solution and added 2nd loading solution containing 15 microM DiSBAC2(3), 0.555 mM VABSC-1 and 0.004% Pluronic F-127 in assay buffer. • Place the plate under the dark at room temperature for 25 minutes. • Add compound solutions into the assay plate. • Set the assay plate in FDSS and placed an EFS device on the plate. • Measure EFS-induced fluorescent response by FDSS.
The data are analyzed and reported as normalized ratios of intensities measured at […]. The process of calculating these ratios is performed as follows:
This analysis is performed using a computerized specific program designed for FDSS generated data. Fluorescence ratio values are plotted using XLfit to determine an IC50 value for each compound.

T1 sequence (Q9NY46 whole entry): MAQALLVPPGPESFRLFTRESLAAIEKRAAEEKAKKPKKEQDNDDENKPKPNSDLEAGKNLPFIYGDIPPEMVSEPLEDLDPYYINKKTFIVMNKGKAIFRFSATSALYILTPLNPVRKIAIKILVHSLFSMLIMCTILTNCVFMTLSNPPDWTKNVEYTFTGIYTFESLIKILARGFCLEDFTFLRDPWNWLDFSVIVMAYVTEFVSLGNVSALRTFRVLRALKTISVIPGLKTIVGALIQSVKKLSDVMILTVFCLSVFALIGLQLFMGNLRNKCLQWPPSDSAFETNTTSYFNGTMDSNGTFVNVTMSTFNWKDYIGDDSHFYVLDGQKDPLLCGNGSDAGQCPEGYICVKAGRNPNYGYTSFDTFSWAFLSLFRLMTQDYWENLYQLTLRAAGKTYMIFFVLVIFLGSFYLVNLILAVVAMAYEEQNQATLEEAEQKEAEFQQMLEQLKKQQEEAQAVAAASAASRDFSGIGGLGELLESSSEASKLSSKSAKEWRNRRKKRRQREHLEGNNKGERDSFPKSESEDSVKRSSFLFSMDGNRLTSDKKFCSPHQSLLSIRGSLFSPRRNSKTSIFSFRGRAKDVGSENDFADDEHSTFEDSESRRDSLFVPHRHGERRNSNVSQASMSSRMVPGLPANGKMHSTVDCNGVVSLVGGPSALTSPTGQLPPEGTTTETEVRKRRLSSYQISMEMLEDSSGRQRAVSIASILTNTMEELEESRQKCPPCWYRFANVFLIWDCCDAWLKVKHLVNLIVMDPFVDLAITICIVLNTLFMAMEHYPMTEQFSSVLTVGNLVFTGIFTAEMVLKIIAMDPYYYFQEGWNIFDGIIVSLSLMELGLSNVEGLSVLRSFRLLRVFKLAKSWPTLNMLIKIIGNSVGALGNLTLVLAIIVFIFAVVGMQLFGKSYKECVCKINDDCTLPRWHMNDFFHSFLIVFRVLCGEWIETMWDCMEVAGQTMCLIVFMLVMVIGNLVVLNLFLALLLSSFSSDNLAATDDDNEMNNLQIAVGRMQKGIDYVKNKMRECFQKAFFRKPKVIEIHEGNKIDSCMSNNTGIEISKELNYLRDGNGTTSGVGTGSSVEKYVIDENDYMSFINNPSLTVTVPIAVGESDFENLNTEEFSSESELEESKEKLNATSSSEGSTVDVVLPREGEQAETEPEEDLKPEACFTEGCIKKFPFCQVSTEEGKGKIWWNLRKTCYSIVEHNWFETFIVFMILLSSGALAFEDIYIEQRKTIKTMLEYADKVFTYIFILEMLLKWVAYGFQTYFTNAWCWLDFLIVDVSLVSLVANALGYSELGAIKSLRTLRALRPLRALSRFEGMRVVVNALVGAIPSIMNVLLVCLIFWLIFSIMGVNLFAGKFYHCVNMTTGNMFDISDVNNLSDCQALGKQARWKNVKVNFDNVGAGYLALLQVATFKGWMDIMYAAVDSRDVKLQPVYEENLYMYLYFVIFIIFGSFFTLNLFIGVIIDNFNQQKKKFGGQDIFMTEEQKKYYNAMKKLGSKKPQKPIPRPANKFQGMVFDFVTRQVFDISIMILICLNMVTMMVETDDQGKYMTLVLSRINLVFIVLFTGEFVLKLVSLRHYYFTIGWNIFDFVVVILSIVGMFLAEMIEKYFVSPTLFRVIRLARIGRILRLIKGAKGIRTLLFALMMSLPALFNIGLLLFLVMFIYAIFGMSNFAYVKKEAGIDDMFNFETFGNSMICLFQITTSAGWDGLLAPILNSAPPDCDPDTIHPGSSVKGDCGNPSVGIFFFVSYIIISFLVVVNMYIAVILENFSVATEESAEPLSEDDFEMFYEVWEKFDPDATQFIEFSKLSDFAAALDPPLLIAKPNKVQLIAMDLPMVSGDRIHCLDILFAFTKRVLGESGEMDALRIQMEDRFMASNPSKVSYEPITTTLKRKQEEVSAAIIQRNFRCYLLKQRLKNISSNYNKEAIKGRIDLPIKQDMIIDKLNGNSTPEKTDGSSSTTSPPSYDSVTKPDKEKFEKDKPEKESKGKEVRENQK

Row | SMILES | IC50 [nM]
1 | O=C(NCc1cnc(OCC(F)(F)F)c(Cl)c1)c1ccnc(NC(=O)C2CC2)c1 [Example 95, N-((5-chloro-6-(2,2,2-trifluoroethoxy)pyridin-3-yl)methyl)-2-(cyclopropanecarboxamido)isonicotinamide] | < 1000
2 | O=C(NCc1cnc(OCC(F)F)c(C2CC2)c1)c1ccnc(NC(=O)C2CC2)n1 [Example 918, 2-(cyclopropanecarboxamido)-N-((5-cyclopropyl-6-(2,2-difluoroethoxy)pyridin-3-yl)methyl)pyrimidine-4-carboxamide] | < 1000
3 | CCc1cc(CNC(=O)c2cc(C)nc(NC(=O)C(C)C)c2)cnc1OCC(F)(F)F [Example 715, N-((5-ethyl-6-(2,2,2-trifluoroethoxy)pyridin-3-yl)methyl)-2-isobutyramido-6-methylisonicotinamide] | < 1000
4 | CC(=O)Nc1cc(C(=O)NCc2ccc(OC(F)(F)F)c(Cl)c2)ccn1 [Example 967, 2-acetamido-N-(3-chloro-4-(trifluoromethoxy)benzyl)isonicotinamide] | < 1000
5 | CCC(=O)Nc1cc(C(=O)NC(C)c2ccc(OCC(F)(F)C(F)(F)F)nc2)cc(C)n1 (single isomer, unassigned) [Example 692, 2-methyl-N-(1-(6-(2,2,3,3,3-pentafluoropropoxy)pyridin-3-yl)ethyl)-6-propionamidoisonicotinamide] | < 1000
6 | CC(=O)Nc1cc(C(=O)NCc2cnc(OCC(F)(F)F)c(Cl)c2)ccn1 [Example 93, 2-acetamido-N-((5-chloro-6-(2,2,2-trifluoroethoxy)pyridin-3-yl)methyl)isonicotinamide] | < 1000
7 | C=C(C)C(=O)Nc1cc(C(=O)NC(C)c2ccc(OCC(F)(F)F)nc2)cc(C)n1 (single isomer, unassigned) [Example 571, 2-methacrylamido-6-methyl-N-(1-(6-(2,2,2-trifluoroethoxy)pyridin-3-yl)ethyl)isonicotinamide] | < 1000
8 | CC(=O)Nc1cc(C(=O)NCc2cccc(OC(F)(F)F)c2F)ccn1 [Example 746, 2-acetamido-N-(2-fluoro-3-(trifluoromethoxy)benzyl)isonicotinamide] | < 1000
9 | Cc1cc(CNC(=O)c2ccnc(NC(=O)C3CC3)c2)nc(OCC(F)(F)F)c1 [Example 578, 2-(cyclopropanecarboxamido)-N-((4-methyl-6-(2,2,2-trifluoroethoxy)pyridin-2-yl)methyl)isonicotinamide] | < 1000
10 | Cc1cc(C(=O)NCc2cccc(OC(F)(F)F)c2F)cc(NC(=O)C(C)C)n1 [Example 752, N-(2-fluoro-3-(trifluoromethoxy)benzyl)-2-isobutyramido-6-methylisonicotinamide] | < 1000
11 | CC(C)C(=O)Nc1cc(C(=O)NCc2cccc(OCC(F)(F)F)n2)ccn1 [Example 468, 2-isobutyramido-N-((6-(2,2,2-trifluoroethoxy)pyridin-2-yl)methyl)isonicotinamide] | < 1000
12 | Cc1cc(C(=O)NC(C)c2ccc(OCC(F)F)c(Cl)c2)nc(NC(=O)C2CC2)n1 (single isomer, unassigned) [Example 984, N-(1-(3-chloro-4-(2,2-difluoroethoxy)phenyl)ethyl)-2-(cyclopropanecarboxamido)-6-methylpyrimidine-4-carboxamide] | < 1000
13 | CCC(=O)Nc1cc(C(=O)NCc2ccc(F)c(OC(F)(F)F)c2)cc(C)n1 [Example 591, N-(4-fluoro-3-(trifluoromethoxy)benzyl)-2-methyl-6-propionamidoisonicotinamide] | < 1000
14 | O=C(NCc1cccc(OCC(F)(F)F)n1)c1ccnc(NC(=O)C2CC2)c1 [Example 465, 2-(cyclopropanecarboxamido)-N-((6-(2,2,2-trifluoroethoxy)pyridin-2-yl)methyl)isonicotinamide] | < 1000

Other lines, results leading:

Row | IC50 [nM] | SMILES
15 | < 1000 | CCC(=O)Nc1cc(C(=O)NCc2cccc(OC(F)(F)F)c2F)ccn1 [Example 747, N-(2-fluoro-3-(trifluoromethoxy)benzyl)-2-propionamidoisonicotinamide]
16 | < 1000 | CCc1cc(CNC(=O)c2ccnc(NC(=O)C3CC3)n2)cnc1OCC(F)(F)F [Example 717, 2-(cyclopropanecarboxamido)-N-((5-ethyl-6-(2,2,2-trifluoroethoxy)pyridin-3-yl)methyl)pyrimidine-4-carboxamide]
17 | < 1000 | CCC(=O)Nc1cc(C(=O)NCc2cc(C(F)(F)F)ccc2F)ccn1 [Example 572, N-(2-fluoro-5-(trifluoromethyl)benzyl)-2-propionamidoisonicotinamide]
18 | < 1000 | Cc1cc(C(=O)NCc2cnc(OCC(F)(F)F)c(Cl)c2)cc(NC(=O)CC2CC2)n1 [Example 956, N-((5-chloro-6-(2,2,2-trifluoroethoxy)pyridin-3-yl)methyl)-2-(2-cyclopropylacetamido)-6-methylisonicotinamide]
19 | < 1000 | Cc1ccc(OCC(F)(F)F)nc1CNC(=O)c1ccnc(NC(=O)C2CC2)c1 [Example 568, 2-(cyclopropanecarboxamido)-N-((3-methyl-6-(2,2,2-trifluoroethoxy)pyridin-2-yl)methyl)isonicotinamide]
20 | < 1000 | Cc1cc(CNC(=O)c2ccnc(NC(=O)C3CC3)n2)ccc1OCC(F)(F)F [Example 779, 2-(cyclopropanecarboxamido)-N-(3-methyl-4-(2,2,2-trifluoroethoxy)benzyl)pyrimidine-4-carboxamide]
21 | < 1000 | CCC(=O)Nc1cc(C(=O)NCc2cc(C)cc(OC(F)(F)F)c2)ccn1 [Example 598, N-(3-methyl-5-(trifluoromethoxy)benzyl)-2-propionamidoisonicotinamide]
22 | < 1000 | CC(=O)Nc1cc(C(=O)NCc2ccc(Cl)c(C(F)(F)F)c2)ccn1 [Example 682, 2-acetamido-N-(4-chloro-3-(trifluoromethyl)benzyl)isonicotinamide]
23 | < 1000 | CCC(=O)Nc1cc(C(=O)NCc2cnc(OCC(F)(F)F)c(CC)c2)cc(C)n1 [Example 714, N-((5-ethyl-6-(2,2,2-trifluoroethoxy)pyridin-3-yl)methyl)-2-methyl-6-propionamidoisonicotinamide]
24 | < 1000 | CC(C)C(=O)Nc1cc(C(=O)NCc2cccc(OC(F)(F)F)c2F)ccn1 [Example 750, N-(2-fluoro-3-(trifluoromethoxy)benzyl)-2-isobutyramidoisonicotinamide]
25 | < 1000 | CC(NC(=O)c1ccnc(NC(=O)C2CC2)n1)c1ccc(OCC(F)(F)C(F)(F)F)nc1 (single isomer, unassigned) [Example 694, 2-(cyclopropanecarboxamido)-N-(1-(6-(2,2,3,3,3-pentafluoropropoxy)pyridin-3-yl)ethyl)pyrimidine-4-carboxamide]
26 | < 1000 | CC(=O)Nc1cc(C(=O)NCc2cccc(OCC(F)(F)F)n2)cc(C)n1 [Example 466, 2-acetamido-6-methyl-N-((6-(2,2,2-trifluoroethoxy)pyridin-2-yl)methyl)isonicotinamide]
27 | < 1000 | Cc1cc(C(=O)NCc2cc(C(F)(F)F)ccc2F)cc(NC(=O)C(C)C)n1 [Example 575, N-(2-fluoro-5-(trifluoromethyl)benzyl)-2-isobutyramido-6-methylisonicotinamide]
28 | < 1000 | CCC(=O)Nc1cc(C(=O)NCc2ccc(OCC(F)(F)C(F)(F)F)nc2)ccn1 [Example 639, N-((6-(2,2,3,3,3-pentafluoropropoxy)pyridin-3-yl)methyl)-2-propionamidoisonicotinamide]
29 | < 1000 | Cc1cc(C(C)NC(=O)c2ccc3cccc(O)c3n2)cnc1OCC(F)(F)F (single isomer, unassigned) [Example 535, 8-hydroxy-N-(1-(5-methyl-6-(2,2,2-trifluoroethoxy)pyridin-3-yl)ethyl)quinoline-2-carboxamide]
30 | < 1000 | CCC(=O)Nc1cc(C(=O)NCc2cnc(OCC(F)(F)F)c(CC)c2)ccn1 [Example 710, N-((5-ethyl-6-(2,2,2-trifluoroethoxy)pyridin-3-yl)methyl)-2-propionamidoisonicotinamide]
31 | < 1000 | CCC(=O)Nc1cc(C(=O)NCc2ccc(OCC(C)(F)F)nc2)ccn1 [Example 719, N-((6-(2,2-difluoropropoxy)pyridin-3-yl)methyl)-2-propionamidoisonicotinamide]
32 | < 1000 | COc1nc(OCC(F)(F)F)ccc1CNC(=O)c1cc(C)nc(NC(=O)CC2CC2)c1 [Example 960, 2-(2-cyclopropylacetamido)-N-((2-methoxy-6-(2,2,2-trifluoroethoxy)pyridin-3-yl)methyl)-6-methylisonicotinamide]
